{"source": "PubChem BioAssay (NCI)", "assay_in_all_cases": "inhibition of tumour cell growth, NCI panel, 48 h", "key": {"NCI-H522 lung": {"system": "NCI-H522 lung"}, "UACC-257 melanoma": {"system": "UACC-257 melanoma"}, "HOP-62 NSCLC": {"system": "HOP-62 NSCLC"}, "DU-145 prostate": {"system": "DU-145 prostate"}, "MOLT-4 leukemia": {"system": "MOLT-4 leukemia"}, "MDA-MB-231 breast": {"system": "MDA-MB-231 breast"}, "BT-549 breast": {"system": "BT-549 breast"}, "SK-MEL-28 melanoma": {"system": "SK-MEL-28 melanoma"}, "CCRF-CEM leukemia": {"system": "CCRF-CEM leukemia"}, "RPMI-8226 leukemia": {"system": "RPMI-8226 leukemia"}, "HCT-116 colon": {"system": "HCT-116 colon"}, "SNB-75 CNS": {"system": "SNB-75 CNS"}, "PC-3 prostate": {"system": "PC-3 prostate"}, "NCI-H23 lung": {"system": "NCI-H23 lung"}, "SN12C renal": {"system": "SN12C renal"}, "A549 NSCLC": {"system": "A549 NSCLC"}, "TK-10 renal": {"system": "TK-10 renal"}, "HT29 colon": {"system": "HT29 colon"}, "MALME-3M melanoma": {"system": "MALME-3M melanoma"}, "RXF 393 renal": {"system": "RXF 393 renal"}, "NCI-H460 lung": {"system": "NCI-H460 lung"}, "CAKI-1 renal": {"system": "CAKI-1 renal"}, "SK-MEL-2 melanoma": {"system": "SK-MEL-2 melanoma"}, "M14 melanoma": {"system": "M14 melanoma"}, "SF-295 CNS": {"system": "SF-295 CNS"}, "UO-31 renal": {"system": "UO-31 renal"}, "OVCAR-5 ovarian": {"system": "OVCAR-5 ovarian"}, "U251 CNS": {"system": "U251 CNS"}}, "note": "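Tested at 5 concentrations; 48 h exposure; 96-well plates; endpoints linearly interpolated, else capped at highest concentration. GI50 marks 50% less growth. TGI: total growth inhibition.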", "data": [{"molecule": "CS(=O)(=O)Nc1cc(-c2ccc3ncc(C#N)c(Nc4cccc(Cl)c4F)c3c2)cnc1Cl", "values": [{"measurement": "GI50", "setting": "NCI-H522 lung", "result": 255, "unit": "nM"}, {"measurement": "TGI", "setting": "NCI-H522 lung", "result": 2670, "unit": "nM"}, {"measurement": "GI50", "setting": "UACC-257 melanoma", "result": 400, "unit": "nM"}, {"measurement": "TGI", "setting": "UACC-257 melanoma", "result": 4540, "unit": "nM"}, {"measurement": "GI50", "setting": "HOP-62 NSCLC", "result": 198, "unit": "nM"}, {"measurement": "TGI", "setting": "HOP-62 NSCLC", "result": 7800, "unit": "nM"}, {"measurement": "GI50", "setting": "DU-145 prostate", "result": 289, "unit": "nM"}, {"measurement": "TGI", "setting": "DU-145 prostate", "result": 5460, "unit": "nM"}, {"measurement": "GI50", "setting": "MOLT-4 leukemia", "result": 82.3, "unit": "nM"}, {"measurement": "TGI", "setting": "MOLT-4 leukemia", "result": 1580, "unit": "nM"}, {"measurement": "GI50", "setting": "MDA-MB-231 breast", "result": 333, "unit": "nM"}, {"measurement": "TGI", "setting": "MDA-MB-231 breast", "result": 2310, "unit": "nM"}, {"measurement": "GI50", "setting": "BT-549 breast", "result": 56, "unit": "nM"}, {"measurement": "TGI", "setting": "BT-549 breast", "result": 959, "unit": "nM"}, {"measurement": "GI50", "setting": "SK-MEL-28 melanoma", "result": 189, "unit": "nM"}, {"measurement": "TGI", "setting": "SK-MEL-28 melanoma", "result": 2820, "unit": "nM"}, {"measurement": "GI50", "setting": "CCRF-CEM leukemia", "result": 90.6, "unit": "nM"}, {"measurement": "TGI", "setting": "CCRF-CEM leukemia", "result": "> 39900", "unit": "nM"}, {"measurement": "GI50", "setting": "RPMI-8226 leukemia", "result": 94.7, "unit": "nM"}, {"measurement": "TGI", "setting": "RPMI-8226 leukemia", "result": 1170, "unit": "nM"}, {"measurement": "GI50", "setting": "HCT-116 colon", "result": 66.5, "unit": "nM"}, {"measurement": "TGI", "setting": "HCT-116 colon", "result": 1140, "unit": "nM"}, {"measurement": "GI50", "setting": "SNB-75 CNS", "result": "< 13.1", "unit": "nM"}, {"measurement": "TGI", "setting": "SNB-75 CNS", "result": 395, "unit": "nM"}, {"measurement": "GI50", "setting": "PC-3 prostate", "result": 260, "unit": "nM"}, {"measurement": "TGI", "setting": "PC-3 prostate", "result": 3600, "unit": "nM"}, {"measurement": "GI50", "setting": "NCI-H23 lung", "result": 158, "unit": "nM"}, {"measurement": "TGI", "setting": "NCI-H23 lung", "result": 9360, "unit": "nM"}, {"measurement": "GI50", "setting": "SN12C renal", "result": 152, "unit": "nM"}, {"measurement": "TGI", "setting": "SN12C renal", "result": 39400, "unit": "nM"}, {"measurement": "GI50", "setting": "A549 NSCLC", "result": 763, "unit": "nM"}, {"measurement": "TGI", "setting": "A549 NSCLC", "result": 2840, "unit": "nM"}, {"measurement": "GI50", "setting": "TK-10 renal", "result": 84.7, "unit": "nM"}, {"measurement": "TGI", "setting": "TK-10 renal", "result": 926, "unit": "nM"}, {"measurement": "GI50", "setting": "HT29 colon", "result": 329, "unit": "nM"}, {"measurement": "TGI", "setting": "HT29 colon", "result": 2320, "unit": "nM"}, {"measurement": "GI50", "setting": "MALME-3M melanoma", "result": 68.3, "unit": "nM"}, {"measurement": "TGI", "setting": "MALME-3M melanoma", "result": 708, "unit": "nM"}, {"measurement": "GI50", "setting": "RXF 393 renal", "result": 76.8, "unit": "nM"}, {"measurement": "TGI", "setting": "RXF 393 renal", "result": 910, "unit": "nM"}, {"measurement": "GI50", "setting": "NCI-H460 lung", "result": 391, "unit": "nM"}, {"measurement": "TGI", "setting": "NCI-H460 lung", "result": 10900, "unit": "nM"}, {"measurement": "GI50", "setting": "CAKI-1 renal", "result": 72.9, "unit": "nM"}, {"measurement": "TGI", "setting": "CAKI-1 renal", "result": 1590, "unit": "nM"}, {"measurement": "GI50", "setting": "SK-MEL-2 melanoma", "result": 29.2, "unit": "nM"}, {"measurement": "TGI", "setting": "SK-MEL-2 melanoma", "result": 177, "unit": "nM"}, {"measurement": "GI50", "setting": "M14 melanoma", "result": 308, "unit": "nM"}, {"measurement": "TGI", "setting": "M14 melanoma", "result": 3580, "unit": "nM"}, {"measurement": "GI50", "setting": "SF-295 CNS", "result": 267, "unit": "nM"}, {"measurement": "TGI", "setting": "SF-295 CNS", "result": 3250, "unit": "nM"}, {"measurement": "GI50", "setting": "UO-31 renal", "result": 205, "unit": "nM"}, {"measurement": "TGI", "setting": "UO-31 renal", "result": 2920, "unit": "nM"}, {"measurement": "GI50", "setting": "OVCAR-5 ovarian", "result": 749, "unit": "nM"}, {"measurement": "TGI", "setting": "OVCAR-5 ovarian", "result": 3920, "unit": "nM"}, {"measurement": "GI50", "setting": "U251 CNS", "result": 59.1, "unit": "nM"}]}]}
